# Assay results from patent US12590062B2, “PD-1/PD-L1 inhibitors” (Gilead Sciences, Inc., priority 2017, dated 2026).
# What was measured:
# PD-1/PD-L1 interaction = target: T1, PD-1/PD-L1 interaction (Homo sapiens, UniProt Q9NZQ7); test: PD-1/PD-L1 NFAT reporter co-culture assay; format: cell-based; settings: Jurkat PD-1 NFAT-luciferase cells co-cultured with aAPC-PD-L1 CHO cells, 6 hrs at 37° C.; read-out: EC50 NFAT Luciferase
# T1 construct: expressed in transfected cells; host or cells: CHO cells (aAPC-PD-L1) co-cultured with Jurkat cells overexpressing PD-1 and an NFAT-luciferase reporter
# How it was run: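 Jurkat cells overexpressing PD-1 with NFAT-driven luciferase were mixed with compound in RPMI 1640/2% FBS and seeded onto overnight-plated CHO aAPC-PD-L1 cells expressing surface anti-CD3 and PD-L1. Co-culture ran 6 h at 37 °C; luminescence read with ONE-Glo; EC50 from four-parameter fit.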
# PD-L1 = target: T2, PD-L1 (Homo sapiens, UniProt Q9NZQ7); test: PD-L1/PD-L1 dimerization biochemical protein-protein interaction assay (ALPHA); format: binding; settings: compound-induced PD-L1 dimerization, head prints '1 nM' (0.5 nM His-tagged PD-L1 and 0.5 nM FLAG-tagged PD-L1), read-out: AC50 PDL1 Dimer Alpha 1 nM
# T2 construct: determine if they can specifically dimerize the extracellular domains of PD-L1
# How it was run: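 ALPHA proximity assay of compound-induced dimerization of 0.5 nM His-tagged and 0.5 nM FLAG-tagged PD-L1 extracellular domains in Hepes pH 7.4 buffer, 2 h at 25 °C. Anti-His acceptor then anti-FLAG donor beads, 60 min each; AC50 from four-parameter fit.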
# PD-1/PD-L1 = PD-1/PD-L1 (Homo sapiens, UniProt Q9NZQ7); test: PD-1/PD-L1 biochemical protein-protein interaction assay (ALPHA); format: binding; settings: 0.3 nM His tagged PD-L1, 2.5 nM biotinylated Fc-PD-1, 60 minutes at 25° C., read-out: IC50 PD-L1-PD-1 Alpha IC50-mono PD-L1-fcP-D1
# How it was run: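 ALPHA bead proximity assay of extracellular domains: 0.3 nM His-PD-L1 with 2.5 nM biotinylated Fc-PD-1 in 25 mM Hepes pH 7.4, 150 mM NaCl, 3.4 mM EDTA, 0.005% Tween 20, 0.01% BSA, 60 min at 25 °C. Anti-His acceptor and streptavidin donor beads added; IC50 from four-parameter fit of signal loss.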
# T1 sequence (Q9NZQ7 19-290): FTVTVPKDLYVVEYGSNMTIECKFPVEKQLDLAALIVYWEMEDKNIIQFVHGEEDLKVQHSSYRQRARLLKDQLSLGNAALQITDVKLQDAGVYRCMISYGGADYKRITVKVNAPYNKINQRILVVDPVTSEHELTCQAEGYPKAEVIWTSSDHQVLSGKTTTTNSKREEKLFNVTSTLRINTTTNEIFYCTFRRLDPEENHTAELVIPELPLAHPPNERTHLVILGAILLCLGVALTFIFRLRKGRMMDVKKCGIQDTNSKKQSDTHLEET
# T2 sequence (Q9NZQ7 19-238 limits assumed): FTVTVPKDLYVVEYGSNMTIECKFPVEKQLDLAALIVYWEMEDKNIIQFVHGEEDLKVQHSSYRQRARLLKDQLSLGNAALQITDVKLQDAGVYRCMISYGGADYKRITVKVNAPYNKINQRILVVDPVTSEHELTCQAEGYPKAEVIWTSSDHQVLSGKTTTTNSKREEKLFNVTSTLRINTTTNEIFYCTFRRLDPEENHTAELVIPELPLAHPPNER
# T2 sequence (Q9NZQ7 19-238 limits assumed): as above
# Sequence of PD-1/PD-L1 (Q9NZQ7 19-238 limits assumed): as above
SMILES,EC50 (PD-1/PD-L1 interaction) [nM],AC50 (PD-L1) [nM],IC50 (PD-1/PD-L1) [nM]
"Cc1c(COc2cc(OCc3cncc(C#N)c3)c(CNCCO)cc2Cl)cccc1-c1cccc(-c2ccc3c(c2)CCC3N2CC[C@H](O)C2)c1C (stereo partly drawn) [Example 373, 5-((4-chloro-2-(((2-hydroxyethyl)amino)methyl)-5-((3′-(1-((S)-3-hydroxypyrrolidin-1-yl)-2,3-dihydro-1H-inden-5-yl)-2,2′-dimethyl-[1,1′-biphenyl]-3-yl)methoxy)phenoxy)methyl)nicotinonitrile]",339,168,2.59
"Cc1c(COc2cc(OCc3cncc(C#N)c3)c(CN[C@@](C)(CO)C(=O)O)cc2Cl)cccc1-c1cccc(-c2ccc(C3CCCN3CCO)cc2)c1C (stereo partly drawn) [Example 374, (2S)-2-((5-chloro-2-((5-cyanopyridin-3-yl)methoxy)-4-((4″-(1-(2-hydroxyethyl)pyrrolidin-2-yl)-2,2′-dimethyl-[1,1′:3′,1″-terphenyl]-3-yl)methoxy)benzyl)amino)-3-hydroxy-2-methylpropanoic acid]",788,165,0.136
"Cc1c(COc2cc(OCc3cncc(C#N)c3)c(CN[C@@](C)(CO)C(=O)O)cc2Cl)cccc1-c1cccc(-c2ccc3c(c2)CCC3N(C)CCO)c1C (stereo partly drawn) [Example 375, (2S)-2-((5-chloro-2-((5-cyanopyridin-3-yl)methoxy)-4-((3′-(1-((2-hydroxyethyl)(methyl)amino)-2,3-dihydro-1H-inden-5-yl)-2,2′-dimethyl-[1,1′-biphenyl]-3-yl)methoxy)benzyl)amino)-3-hydroxy-2-methylpropanoic acid]",389,173,0.21
"Cc1c(COc2cc(OCc3cncc(C#N)c3)c(CNCCO)cc2Cl)cccc1-c1cccc(-c2ccc(C3CCCN3)cc2)c1C (stereo not drawn) [Example 379, 5-((4-chloro-5-((2,2′-dimethyl-4″-(pyrrolidin-2-yl)-[1,1′:3′,1″-terphenyl]-3-yl)methoxy)-2-(((2-hydroxyethyl)amino)methyl)phenoxy)methyl)nicotinonitrile]",415,153,2.38
"Cc1c(COc2cc(OCc3cncc(C#N)c3)c(CNC[C@@H](O)CC(=O)O)cc2Cl)cccc1-c1cccc(-c2ccc([C@H](C)N(C)C)cc2)c1C [Example 380, (S)-4-((5-chloro-2-((5-cyanopyridin-3-yl)methoxy)-4-((4″-((S)-1-(dimethylamino)ethyl)-2,2′-dimethyl-[1,1′:3′,1″-terphenyl]-3-yl)methoxy)benzyl)amino)-3-hydroxybutanoic acid]",652,184,0.282
"Cc1c(COc2cc(OCc3cncc(C#N)c3)c(CN(C)C)cc2Cl)cccc1-c1cccc(-c2ccc(CN(C)C)nc2)c1C [Example 382, 5-((4-chloro-2-((dimethylamino)methyl)-5-((3′-(6-((dimethylamino)methyl)pyridin-3-yl)-2,2′-dimethyl-[1,1′-biphenyl]-3-yl)methoxy)phenoxy)methyl)nicotinonitrile]",1230,334,0.304
"Cc1c(COc2cc(OCc3cncc(C#N)c3)c(CNC[C@@H](O)CC(=O)O)cc2Cl)cccc1-c1cccc(-c2ccc(CN(C)C)cc2)c1C [Example 383, (S)-4-((5-chloro-2-((5-cyanopyridin-3-yl)methoxy)-4-((4″-((dimethylamino)methyl)-2,2′-dimethyl-[1,1′:3′,1″-terphenyl]-3-yl)methoxy)benzyl)amino)-3-hydroxybutanoic acid]",467,157,0.252
"COc1cc(COc2cccc(-c3cccc(COc4cc(OCc5cncc(C#N)c5)c(CNC[C@@H](O)CC(=O)O)cc4Cl)c3C)c2C)c(Cl)cc1CNC[C@@H](O)CC(=O)O [Example 389, (S)-4-((4-(((3′-((4-((((S)-3-carboxy-2-hydroxypropyl)amino)methyl)-2-chloro-5-((5-cyanopyridin-3-yl)methoxy)phenoxy)methyl)-2,2′-dimethyl-[1,1′-biphenyl]-3-yl)oxy)methyl)-5-chloro-2-methoxybenzyl)amino)-3-hydroxybutanoic acid]",306,120,0.374
"Cc1c(COc2cc(OCc3cncc(C#N)c3)c(CNC[C@@H](O)CC(=O)O)cc2Cl)cccc1-c1cccc(OCc2ccc(CNC[C@@H](O)CC(=O)O)cn2)c1C [Example 392, (S)-4-(((6-(((3′-((4-((((S)-3-carboxy-2-hydroxypropyl)amino)methyl)-2-chloro-5-((5-cyanopyridin-3-yl)methoxy)phenoxy)methyl)-2,2′-dimethyl-[1,1′-biphenyl]-3-yl)oxy)methyl)pyridin-3-yl)methyl)amino)-3-hydroxybutanoic acid]",351,232,0.051

# The remaining lines, values ahead:
EC50 (PD-1/PD-L1 interaction) [nM],AC50 (PD-L1) [nM],IC50 (PD-1/PD-L1) [nM],SMILES
262,231,0.178,"Cc1c(COc2cc(OCc3cncc(C#N)c3)c(CN3C[C@@H](O)C[C@H]3C(=O)O)cc2Cl)cccc1-c1cccc(-c2ccc3c(c2)CC[C@H]3N(C)C)c1C [Example 377, (2S,4S)-1-(5-chloro-2-((5-cyanopyridin-3-yl)methoxy)-4-((3′-((R)-1-(dimethylamino)-2,3-dihydro-1H-inden-5-yl)-2,2′-dimethyl-[1,1′-biphenyl]-3-yl)methoxy)benzyl)-4-hydroxypyrrolidine-2-carboxylic acid]"
219,144,0.158,"Cc1c(COc2cc(OCc3cncc(C#N)c3)c(CNC[C@@H](O)CC(=O)O)cc2Cl)cccc1-c1cccc(-c2ccc3c(c2)CCC3N(C)C)c1C (stereo partly drawn) [Example 381, (3S)-4-((5-chloro-2-((5-cyanopyridin-3-yl)methoxy)-4-((3′-(1-(dimethylamino)-2,3-dihydro-1H-inden-5-yl)-2,2′-dimethyl-[1,1′-biphenyl]-3-yl)methoxy)benzyl)amino)-3-hydroxybutanoic acid]"
154,154,0.112,"Cc1c(COc2cc(OCc3cncc(C#N)c3)c(CNC[C@@H](O)CC(=O)O)cc2Cl)cccc1-c1cccc(-c2ccc(CNC[C@@H](O)CC(=O)O)cc2)c1C [Example 384, (S)-4-((4-((4″-((((S)-3-carboxy-2-hydroxypropyl)amino)methyl)-2,2′-dimethyl-[1,1′:3′,1″-terphenyl]-3-yl)methoxy)-5-chloro-2-((5-cyanopyridin-3-yl)methoxy)benzyl)amino)-3-hydroxybutanoic acid]"
120,97.5,0.324,"Cc1c(COc2cc(OCc3cncc(C#N)c3)c(CNC[C@@H](O)CC(=O)O)cc2Cl)cccc1-c1cccc(OCc2cc(OCc3cncc(C#N)c3)c(CNC[C@@H](O)CC(=O)O)cc2Cl)c1C [Example 390, (S)-4-((4-((3′-((4-((((S)-3-carboxy-2-hydroxypropyl)amino)methyl)-2-chloro-5-((5-cyanopyridin-3-yl)methoxy)benzyl)oxy)-2,2′-dimethyl-[1,1′-biphenyl]-3-yl)methoxy)-5-chloro-2-((5-cyanopyridin-3-yl)methoxy)benzyl)amino)-3-hydroxybutanoic acid]"
305,243,1.42,"Cc1c(COc2cc(OCc3cncc(C#N)c3)c(CNCC3(O)CC3)cc2Cl)cccc1-c1cccc(-c2ccc(OCCNCCO)cc2)c1C [Example 391, 5-((4-chloro-2-((((1-hydroxycyclopropyl)methyl)amino)methyl)-5-((4″-(2-((2-hydroxyethyl)amino)ethoxy)-2,2′-dimethyl-[1,1′:3′,1″-terphenyl]-3-yl)methoxy)phenoxy)methyl)nicotinonitrile]"
